Results on 22 compounds are retold here after ChEMBL document CHEMBL5625225, “Vinylphosphonate-based cyclic dinucleotides enhance STING-mediated cancer immunotherapy” (Eur J Med Chem, 2023).

Bounds are passed on as bounds.

For test [1], the target named is T1, Stimulator of interferon genes protein (Homo sapiens, UniProt Q86WV6). Put plainly: Agonist activity at STING R232 mutant (unknown origin) expressed in digitonin -permeabilized HEK293T cells preincubated for 30 mins followed by washout and measured after 5 hrs by Bright-glo luciferase assay. The class given is cell-based.
Target sequence in this assay (Q86WV6 whole entry, looked up, stated change not applied): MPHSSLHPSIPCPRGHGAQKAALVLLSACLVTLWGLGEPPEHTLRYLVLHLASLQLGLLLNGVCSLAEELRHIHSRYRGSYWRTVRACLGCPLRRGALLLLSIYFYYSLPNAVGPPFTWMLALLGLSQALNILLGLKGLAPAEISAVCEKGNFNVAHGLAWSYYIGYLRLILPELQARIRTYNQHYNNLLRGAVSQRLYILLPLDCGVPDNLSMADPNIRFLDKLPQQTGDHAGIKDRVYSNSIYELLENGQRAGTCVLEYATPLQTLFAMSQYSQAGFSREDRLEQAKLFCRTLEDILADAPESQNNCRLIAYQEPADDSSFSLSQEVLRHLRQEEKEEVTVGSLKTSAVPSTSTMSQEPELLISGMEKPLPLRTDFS
The target of test [2] is Stimulator of interferon genes protein (Homo sapiens, UniProt Q86WV6, G230A/R293Q/R71H). In words: Agonist activity at STING R71H/G230A/R293Q mutant (unknown origin) expressed in digitonin -permeabilized HEK293T cells preincubated for 30 mins followed by washout and measured after 5 hrs by Bright-glo luciferase assay. The format is cell-based.
Chain of Stimulator of interferon genes protein (Homo sapiens, UniProt Q86WV6, G230A/R293Q/R71H) (Q86WV6 whole entry R71H/G230A/R293Q): as the sequence (Q86WV6 whole entry, looked up, stated change not applied) above, with R71H, G230A, R293Q counted along it
Test [3] in a line: Agonist activity at STING R232H mutant (unknown origin) expressed in digitonin -permeabilized HEK293T cells preincubated for 30 mins followed by washout and measured after 5 hrs by Bright-glo luciferase assay. The class given is cell-based. As to conditions: Homo sapiens, HEK-293T.
Test [4] deals with Stimulator of interferon genes protein (Homo sapiens, UniProt Q86WV6, G230A/R293Q). In words: Agonist activity at STING G230A/R293Q mutant (unknown origin) expressed in digitonin -permeabilized HEK293T cells preincubated for 30 mins followed by washout and measured after 5 hrs by Bright-glo luciferase assay. The format is cell-based.
Chain of Stimulator of interferon genes protein (Homo sapiens, UniProt Q86WV6, G230A/R293Q) (Q86WV6 whole entry G230A/R293Q): as the sequence (Q86WV6 whole entry, looked up, stated change not applied) above, with G230A, R293Q counted along it
Test [5] deals with Stimulator of interferon genes protein (Homo sapiens, UniProt Q86WV6, R293Q). Put plainly: Agonist activity at STING R293Q mutant (unknown origin) expressed in digitonin -permeabilized HEK293T cells preincubated for 30 mins followed by washout and measured after 5 hrs by Bright-glo luciferase assay. The class given is cell-based.
Chain of Stimulator of interferon genes protein (Homo sapiens, UniProt Q86WV6, R293Q) (Q86WV6 whole entry R293Q): as the sequence (Q86WV6 whole entry, looked up, stated change not applied) above, with R293Q counted along it
Test [6] has as its system Stimulator of interferon genes protein (Homo sapiens), Q86WV6 [UNDEFINED MUTATION]. As to conditions: filed as agonist.
Description: Binding affinity to STING R232 mutant (unknown origin) assessed as change in melting temperature by differential scanning fluorimetry analysis
The subject of test [7] is Stimulator of interferon genes protein (Homo sapiens), Q86WV6 [G230A,R293Q]. As to conditions: filed as agonist.
Description: Binding affinity to STING G230A/R293Q mutant (unknown origin) assessed as change in melting temperature by differential scanning fluorimetry analysis
Test [8] deals with T1, Stimulator of interferon genes protein. In words: Agonist activity at wild type STING (unknown origin) expressed in HEK293T cells preincubated for 30 mins followed by washout and measured after 6.5 hrs by Bright-glo luciferase assay. The format is cell-based.
Target sequence in this assay (Q86WV6 whole entry): as the sequence (Q86WV6 whole entry, looked up, stated change not applied) above
For test [9] the target is unchanged. Put plainly: Agonist activity at wild type STING (unknown origin) expressed in HEK293T cells measured after 7 hrs by Bright-glo luciferase assay. The class given is cell-based.
Target sequence in this assay (Q86WV6 whole entry): as the sequence (Q86WV6 whole entry, looked up, stated change not applied) above
Test [10] can be described thus: Induction of cytokine production in human PBMC cells assessed as IFN-gamma level incubated for 60 mins followed by washout and measured after 15 hrs. The format is functional, cell-based.
Test [11] is described as follows: Induction of cytokine production in human PBMC cells assessed as TNF-alpha level incubated for 60 mins followed by washout and measured after 15 hrs. The class given is functional, cell-based.
Test [12] is described as follows: Induction of cytokine production in human PBMC cells assessed as IFN-alpha level incubated for 60 mins followed by washout and measured after 15 hrs. The class given is functional, cell-based.

Chain of Stimulator of interferon genes protein (Homo sapiens), Q86WV6 [G230A,R293Q] (Q86WV6 whole entry G230A/R293Q): as the sequence (Q86WV6 whole entry, looked up, stated change not applied) above, with G230A, R293Q counted along it
Chain of Stimulator of interferon genes protein (Homo sapiens), Q86WV6 [UNDEFINED MUTATION] (Q86WV6 whole entry, looked up, stated change not applied): as the sequence (Q86WV6 whole entry, looked up, stated change not applied) above

Broadly, the EC50 is the concentration needed to bring the measured effect to its halfway point. The term ΔTm denotes the change in melting temperature against a reference sample. Turning to `Nc1nc2c(ncn2[C@@H]2O[C@@H]3/C=C/P(=O)(O)O[C@H]4[C@@H](F)[C@H](n5cnc6c(N)ncnc65)O[C@@H]4COP(=O)(O)O[C@H]3[C@H]2F)c(=O)[nH]1`, the EC50 in test [1] turned out to be 0.02 µM; in test [2] it was 0.06 µM; in [3], 0.32 µM; in test [4] it was 0.08 µM; in test [5], 0.46 µM. The figures for the ΔTm in test [6] and in test [7] were 9.4 °C and 15.2 °C, respectively.

For `Nc1nc2c(ncn2[C@@H]2O[C@@H]3/C=C/P(=O)(O)O[C@H]4[C@@H](F)[C@H](n5cnc6c(=O)[nH]c(N)nc65)O[C@@H]4COP(=O)(O)O[C@H]3[C@H]2F)c(=O)[nH]1`, the EC50 in [1] worked out at 0.5 µM; in [2] it was 0.95 µM; in test [3] it was 3.69 µM; in test [4], 0.95 µM; in test [5] it was 8.65 µM. Besides, the ΔTm was 3.4 °C in test [6] and 8.8 °C in test [7].

On to `Nc1nc2c(ncn2[C@H]2C[C@@H]3OP(=O)(O)/C=C/[C@H]4O[C@@H](n5cnc6c(N)ncnc65)[C@H](F)[C@@H]4OP(=O)(O)OC[C@H]3O2)c(=O)[nH]1`, for which the concentration for a half-maximal effect (EC50) in test [1] worked out at 0.12 µM; in [2] it was 0.14 µM; in [3], 9.5 µM; in test [4], 0.13 µM; in [5], 2.95 µM. In addition, the shift in melting temperature (ΔTm) in test [6] stood at 5.2 °C; in [7], 11.4 °C.

Consider `Nc1ncnc2c1ncn2[C@@H]1O[C@@H]2COP(=O)(O)O[C@H]3C[C@H](n4cnc5c(N)ncnc54)O[C@@H]3/C=C/P(=O)(O)O[C@H]2[C@H]1F`, for which the EC50 in test [1] was 0.75 µM; in [2], 0.28 µM; in test [3] it was greater than 45 µM; in test [4] it was 0.4 µM; in test [5] it was 6.57 µM. Besides, the ΔTm was determined as 2.3 °C in test [6] and 8.2 °C in test [7].

Regarding `Nc1nc2c(ncn2[C@@H]2O[C@@H]3COP(=O)(O)O[C@H]4C[C@H](n5cnc6c(N)ncnc65)O[C@@H]4/C=C/P(=O)(O)O[C@H]3[C@H]2F)c(=O)[nH]1`, the EC50 was 0.7 µM in test [1]; 0.35 µM in test [2]; 25.5 µM in [3]; 0.29 µM in [4]; 4.15 µM in test [5]. The ΔTm was 4.8 °C in test [6] and 11.9 °C in test [7].

Consider `Nc1nc2c(ncn2[C@H]2C[C@@H]3OP(=O)(O)/C=C/[C@H]4O[C@@H](n5cnc6c(N)ncnc65)C[C@@H]4OP(=O)(O)OC[C@H]3O2)c(=O)[nH]1`, for which the EC50 in test [1] is 10.8 µM; in [2], 0.24 µM; in test [3], greater than 45 µM; in test [4], 0.39 µM; in test [5] it was greater than 45 µM. The ΔTm is 0.9 °C in [6] and 4.5 °C in test [7].

As for `Nc1nc2c(ncn2[C@H]2C[C@@H]3OP(=O)(O)OC[C@H]4O[C@@H](n5cnc6c(N)ncnc65)C[C@@H]4OP(=O)(O)/C=C/[C@H]3O2)c(=O)[nH]1`, the EC50 is 0.78 µM in [1]; 0.44 µM in [2]; greater than 45 µM in [3]; 0.21 µM in [4]; greater than 45 µM in test [5]. The shift in melting temperature (ΔTm) in test [6] worked out at 1.9 °C; in test [7], 8.6 °C.

In the case of `Nc1ncnc2c1ncn2[C@@H]1O[C@@H]2/C=C/P(=O)(O)O[C@H]3C[C@H](n4cnc5c(N)ncnc54)O[C@@H]3COP(=O)(O)O[C@H]2[C@H]1F`, the half-maximal effective concentration (EC50) is 0.28 µM in test [1]; 0.27 µM in [2]; greater than 45 µM in [3]; 0.39 µM in test [4]; 1.5 µM in test [5]; greater than 200 µM in test [8]. In test [9], the midpoint of the response, the EC50, lay at 71.7 µM. Moreover, the shift in melting temperature (ΔTm) in test [6] stood at 2.7 °C; in [7], 8.9 °C.

With `CC(C)(C)C(=O)OCOP1(=O)/C=C/[C@H]2O[C@@H](n3cnc4c(N)ncnc43)[C@H](F)[C@@H]2OP(=O)(OCOC(=O)C(C)(C)C)OC[C@H]2O[C@@H](n3cnc4c(N)ncnc43)[C@H](F)[C@@H]2O1` (stereo in doubt; 11A), the EC50 in test [8] turned out to be 0.13 µM; in [9] it was 0.06 µM.

Regarding `CC(C)(C)C(=O)OCOP1(=O)/C=C/[C@H]2O[C@@H](n3cnc4c(N)ncnc43)[C@H](F)[C@@H]2OP(=O)(OCOC(=O)C(C)(C)C)OC[C@H]2O[C@@H](n3cnc4c(N)ncnc43)[C@H](F)[C@@H]2O1` (stereo in doubt; 11B), the half-maximal effective concentration (EC50) is 0.03 µM in test [8]; 0.022 µM in test [9]; 0.75 µM in test [10] (pbmc); 0.33 µM in [11] (pbmc); 0.35 µM in [12] (pbmc).

In the case of `CC(C)OC(=O)OCOP1(=O)/C=C/[C@H]2O[C@@H](n3cnc4c(N)ncnc43)[C@H](F)[C@@H]2OP(=O)(OCOC(=O)OC(C)C)OC[C@H]2O[C@@H](n3cnc4c(N)ncnc43)[C@H](F)[C@@H]2O1` (stereo in doubt; 12A), the EC50 in [8] was 7.95 µM; in test [9] it was 9.5 µM.

As to `CC(C)OC(=O)OCOP1(=O)/C=C/[C@H]2O[C@@H](n3cnc4c(N)ncnc43)[C@H](F)[C@@H]2OP(=O)(OCOC(=O)OC(C)C)OC[C@H]2O[C@@H](n3cnc4c(N)ncnc43)[C@H](F)[C@@H]2O1` (stereo in doubt; 12B), the EC50 in test [8] worked out at 2.63 µM; in test [9] it was 1.25 µM.

For `CC(C)OC(=O)OCOP1(=O)/C=C/[C@H]2O[C@@H](n3cnc4c(N)ncnc43)[C@H](F)[C@@H]2OP(=O)(OCOC(=O)OC(C)C)OC[C@H]2O[C@@H](n3cnc4c(N)ncnc43)[C@H](F)[C@@H]2O1` (stereo in doubt; 12C), the EC50 in test [8] came to 0.25 µM; in test [9], 0.07 µM; in test [10] (Homo sapiens, PBMC) it was 1.3 µM; in test [11] (Homo sapiens, PBMC), 0.25 µM; in test [12] (Homo sapiens, PBMC), 0.6 µM.

Regarding `CCC(C)(C)C(=O)OCOP1(=O)/C=C/[C@H]2O[C@@H](n3cnc4c(N)ncnc43)[C@H](F)[C@@H]2OP(=O)(OCOC(=O)C(C)(C)CC)OC[C@H]2O[C@@H](n3cnc4c(N)ncnc43)[C@H](F)[C@@H]2O1` (stereo in doubt; 13A), the EC50 in test [8] turned out to be 0.45 µM; in test [9] it was 0.15 µM.

Regarding `CCC(C)(C)C(=O)OCOP1(=O)/C=C/[C@H]2O[C@@H](n3cnc4c(N)ncnc43)[C@H](F)[C@@H]2OP(=O)(OCOC(=O)C(C)(C)CC)OC[C@H]2O[C@@H](n3cnc4c(N)ncnc43)[C@H](F)[C@@H]2O1` (stereo in doubt; 13B), the EC50 in test [8] was found to be 0.035 µM; in test [9], 0.014 µM.

`CC1(C(=O)OCOP2(=O)/C=C/[C@H]3O[C@@H](n4cnc5c(N)ncnc54)[C@H](F)[C@@H]3OP(=O)(OCOC(=O)C3(C)CCCCC3)OC[C@H]3O[C@@H](n4cnc5c(N)ncnc54)[C@H](F)[C@@H]3O2)CCCCC1` (stereo in doubt; 14A): the half-maximal effective concentration (EC50) in [8] stood at 0.5 µM; in test [9] it was 0.25 µM.

As for `CC1(C(=O)OCOP2(=O)/C=C/[C@H]3O[C@@H](n4cnc5c(N)ncnc54)[C@H](F)[C@@H]3OP(=O)(OCOC(=O)C3(C)CCCCC3)OC[C@H]3O[C@@H](n4cnc5c(N)ncnc54)[C@H](F)[C@@H]3O2)CCCCC1` (stereo in doubt; 14B), the EC50 in test [8] came to 0.225 µM; in test [9], 0.08 µM; in [10] (pbmc), 0.25 µM; in test [11] (pbmc), 0.14 µM; in [12] (pbmc), 0.3 µM.

Turning to `CCCCCCCC(=O)OCOP1(=O)/C=C/[C@H]2O[C@@H](n3cnc4c(N)ncnc43)[C@H](F)[C@@H]2OP(=O)(OCOC(=O)CCCCCCC)OC[C@H]2O[C@@H](n3cnc4c(N)ncnc43)[C@H](F)[C@@H]2O1` (stereo in doubt; 15A), the results for the 50% effective concentration (EC50) in test [8] and in test [9] were 0.35 µM and 0.02 µM, respectively.

For the compound `CCCCCCCC(=O)OCOP1(=O)/C=C/[C@H]2O[C@@H](n3cnc4c(N)ncnc43)[C@H](F)[C@@H]2OP(=O)(OCOC(=O)CCCCCCC)OC[C@H]2O[C@@H](n3cnc4c(N)ncnc43)[C@H](F)[C@@H]2O1` (stereo in doubt; 15B), the EC50 turned out to be 0.004 µM in test [8]; 0.003 µM in test [9]; 0.06 µM in test [10] (pbmc); 0.07 µM in test [11] (pbmc); 0.08 µM in [12] (Homo sapiens, PBMC).

Turning to `CC(C)(C)C(=O)OCOP1(=O)/C=C/[C@H]2O[C@@H](n3cnc4c(N)ncnc43)C[C@@H]2OP(=O)(OCOC(=O)C(C)(C)C)OC[C@H]2O[C@@H](n3cnc4c(N)ncnc43)[C@H](F)[C@@H]2O1` (stereo in doubt; 24A), the EC50 amounted to 9.93 µM in test [8] and 12.1 µM in test [9].

Regarding `CC(C)(C)C(=O)OCOP1(=O)/C=C/[C@H]2O[C@@H](n3cnc4c(N)ncnc43)C[C@@H]2OP(=O)(OCOC(=O)C(C)(C)C)OC[C@H]2O[C@@H](n3cnc4c(N)ncnc43)[C@H](F)[C@@H]2O1` (stereo in doubt; 24B), the EC50 in [8] worked out at 0.55 µM; in test [9], 0.675 µM.

On to `CC(C)(C)C(=O)OCOP1(=O)/C=C/[C@H]2O[C@@H](n3cnc4c(N)ncnc43)C[C@@H]2OP(=O)(OCOC(=O)C(C)(C)C)OC[C@H]2O[C@@H](n3cnc4c(N)ncnc43)[C@H](F)[C@@H]2O1` (stereo in doubt; 24C), for which the results for the half-maximal effective concentration (EC50) in test [8] and in test [9] were 0.21 µM and 0.26 µM, respectively.
